Data: US20240059693A1, “FUSED BICYCLIC PYRAZOLE DERIVATIVES AND METHODS OF USE THEREOF FOR THE TREATMENT OF HERPESVIRUSES” (Merck Sharp & Dohme LLC, priority 2020, published 2024)
Like-named read-outs stand apart in the source and are kept apart here.

Assays:
[1] = system: HSV2; test: Viral qPCR assay, HSV2 in Vero cells; assay type: cell-based, Herpes Simplex Virus type 2; settings: read-out: HSV2 VERO Cell (EC50)
Method: (§1) MRCS cells, Vero cells, and MeWo cells were obtained from ATCC and were maintained at 37° C./5% CO2/90% relative humidity in Minimal Essential Medium with 10% fetal bovine serum, […] L-glutamine, 100 units/ml penicillin and 100 ug/ml streptomycin. Assay plates were prepared by dispensing compounds dissolved in DMSO into wells of 384 well collagen-coated plates using an ECHO acoustic dispenser. Each compound was tested in a 10-point, serial 3-fold dilution. Controls included uninfected cells and infected cells treated only with DMSO. Assays were initiated by mixing selected cells, in suspension, with virus, and dispensing 50 μl/well infected cells to pre-plated compounds. Plates were incubated at 37° C./5% CO2/90% relative humidity for ˜72 hrs to permit genomic replication, and infected cells were lysed by the addition of an equal volume of lysis buffer (10 mM Tris-HCl, pH8, 50 mM KCl, 2 mM MgCl2, 0.45% NP-40, 0.45% Tween-20, and 100 μg/ml proteinase K). An aliquot of the lysate was transferred to a 384-well PCR plate and incubated at 56° C. for 1 hour and then at 95° C. for 10 min. Levels of a viral gene and of the cellular control, PPIA (Thermo Fisher Assay ID=Hs04194521_s1), were measured in separate 10 μL qPCR assays using TaqMan® Gene Expression Master Mix (Applied Biosystems), and an 7900HT Fast Real-Time PCR System with 384-Well Block Module. 7-point, serial 10-fold dilutions of a plasmid standard were run on each plate to generate a standard curve, and genome copies numbers were calculated by plotting experimental Ct onto linear regression of the standard curve. Viral genome copy numbers were normalized by cellular control copy number, and compound effects were normalized to the window defined by the controls. Calculated % effects were fit using a 4-parameter algorithm, and EC50 was reported.
as §1, with “gene” for “gene and of the cellular control, PPIA (Thermo Fisher Assay ID=Hs04194521_s1),”, “in” for “in separate”, “Compound effects on viral” for “Viral”, “number” for “numbers were normalized by cellular control copy number, and compound effects”

[2] = target: T1, varicella zoster virus DNA polymerase (Varicella-zoster virus, UniProt P09252); test: VZV polymerase assay (AlphaLISA); assay type: biochemical; settings: VZV DNA polymerase 0.4 nM, 60 minutes at 37° C.
T1 construct: made in house; host or cells: SF21 insect cells (baculovirus vector)
Method in brief: (§2)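 Baculovirus/SF21-expressed polymerase (HCMV 0.2 nM; VZV 0.4 nM) pre-incubated 30 min at room temperature with compound in HEPES pH 7.5 buffer, then 60 min at 37 °C with 1.6 nM DIG-primer/template, sub-nM to 24 nM dNTPs and 0.8 nM biotin-dUTP. AlphaLISA detection; IC50 from 4-parameter fit.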

[3] = system: VZV; test: Viral qPCR assay, VZV in MeWo cells; assay type: cell-based, varicella zoster virus; settings: read-out: VZV MEWO Cell (IC50)
Method: as §1
as §1, with “gene” for “gene and of the cellular control, PPIA (Thermo Fisher Assay ID=Hs04194521_s1),”, “in” for “in separate”, “Compound effects on viral” for “Viral”, “number” for “numbers were normalized by cellular control copy number, and compound effects”
(§3) VZV: Strain Street was maintained as an infected cell stock in MRC-5 cells. It was assayed in MeWo or MRCS cells and was used at 0.04-0.1 pfu/cell. The assays were performed in growth medium. Primer-probe set was Thermo Fisher Assay ID=AIPAEXQ. HSV-1: Strain F Street was assayed in Vero or MRCS cells and was used at 0.0005-0.004 pfu/cell in growth medium. Primer-probe set was Thermo Fisher Assay ID=AIBJZIB

[4] = system: HCMV Strain AD169; test: Viral qPCR assay, HCMV in MRC-5 cells; assay type: cell-based, Human cytomegalovirus; settings: read-out: CMV MRC5 Cell (EC50)
Method in brief: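 Viral genome copies, quantified by TaqMan qPCR with a plasmid standard curve after ~72 h infection of MRC-5 cells with AD169 at 0.05-0.1 pfu/cell, served as readout; PPIA normalisation used in one format. Compounds run as 10-point 3-fold series, in standard or 50% FBS media; EC50 by 4-parameter fit.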

[5] = system: HSV-1 Strain F; test: Viral qPCR assay, HSV-1 in Vero cells; assay type: cell-based, Herpes Simplex Virus type 1; settings: read-out: HSV1 VERO Cell (EC50)
Method: as §1
as §1, with “gene” for “gene and of the cellular control, PPIA (Thermo Fisher Assay ID=Hs04194521_s1),”, “in” for “in separate”, “Compound effects on viral” for “Viral”, “number” for “numbers were normalized by cellular control copy number, and compound effects”
as §3

[6] = target: T2, Human cytomegalovirus DNA polymerase (Human cytomegalovirus, UniProt P08546); test: HCMV polymerase assay (AlphaLISA); assay type: biochemical; settings: HCMV DNA polymerase 0.2 nM, 60 minutes at 37° C.; read-out: CMV (IC50)
T2 construct: made in house; host or cells: SF21 insect cells (baculovirus vector)
Method in brief: as §2

[7] = system: HSV2; test: Viral qPCR assay, HSV2 in MRC5 cells; assay type: cell-based, Herpes Simplex Virus type 2; settings: read-out: HSV2 MRC5 Cell (EC50)
Method in brief: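 EC50 from a 4-parameter fit of % effect on HSV2 genome copies, quantified by qPCR from a plasmid standard curve and normalized to infected DMSO and uninfected controls, with PPIA correction in one version. Virus-mixed Vero or MRC5 cells met 10-point 3-fold serial compound dilutions for ~72 h at 37 °C.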

[8] = system: HSV-1 Strain F; test: Viral qPCR assay, HSV-1 in MRC5 cells; assay type: cell-based, Herpes Simplex Virus type 1; settings: read-out: HSV1 MRC5 Cell (EC50)
Method in brief: (§4)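 EC50 from a 4-parameter fit of viral genome copies, quantified by TaqMan qPCR on proteinase K lysates against a plasmid standard, with or without PPIA normalization. Infected cells (VZV 0.04-0.1 pfu/cell in MeWo/MRC5; HSV-1 0.0005-0.004 pfu/cell in Vero/MRC5) were exposed to 10-point 3-fold dilutions for ~72 h at 37 °C.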

[9] = system: VZV; test: Viral qPCR assay, VZV in MRC5 cells; assay type: cell-based, varicella zoster virus; settings: read-out: VZV MRC5 Cell (IC50)
Method in brief: as §4

[10] = Human alphaherpesvirus 2, Vero, 72 h
[11] = Human alphaherpesvirus 3, ~72 hrs
[12] = Human betaherpesvirus 5, AD169, MRC5, 72 h
[13] = Human alphaherpesvirus 1, Vero, 72 h
[14] = Human alphaherpesvirus 2, MRC5, 72 h
[15] = Human alphaherpesvirus 1, MRC5, 72 h
[16] = Human alphaherpesvirus 3, MRC5, 72 h

T1 sequence (P09252 whole entry): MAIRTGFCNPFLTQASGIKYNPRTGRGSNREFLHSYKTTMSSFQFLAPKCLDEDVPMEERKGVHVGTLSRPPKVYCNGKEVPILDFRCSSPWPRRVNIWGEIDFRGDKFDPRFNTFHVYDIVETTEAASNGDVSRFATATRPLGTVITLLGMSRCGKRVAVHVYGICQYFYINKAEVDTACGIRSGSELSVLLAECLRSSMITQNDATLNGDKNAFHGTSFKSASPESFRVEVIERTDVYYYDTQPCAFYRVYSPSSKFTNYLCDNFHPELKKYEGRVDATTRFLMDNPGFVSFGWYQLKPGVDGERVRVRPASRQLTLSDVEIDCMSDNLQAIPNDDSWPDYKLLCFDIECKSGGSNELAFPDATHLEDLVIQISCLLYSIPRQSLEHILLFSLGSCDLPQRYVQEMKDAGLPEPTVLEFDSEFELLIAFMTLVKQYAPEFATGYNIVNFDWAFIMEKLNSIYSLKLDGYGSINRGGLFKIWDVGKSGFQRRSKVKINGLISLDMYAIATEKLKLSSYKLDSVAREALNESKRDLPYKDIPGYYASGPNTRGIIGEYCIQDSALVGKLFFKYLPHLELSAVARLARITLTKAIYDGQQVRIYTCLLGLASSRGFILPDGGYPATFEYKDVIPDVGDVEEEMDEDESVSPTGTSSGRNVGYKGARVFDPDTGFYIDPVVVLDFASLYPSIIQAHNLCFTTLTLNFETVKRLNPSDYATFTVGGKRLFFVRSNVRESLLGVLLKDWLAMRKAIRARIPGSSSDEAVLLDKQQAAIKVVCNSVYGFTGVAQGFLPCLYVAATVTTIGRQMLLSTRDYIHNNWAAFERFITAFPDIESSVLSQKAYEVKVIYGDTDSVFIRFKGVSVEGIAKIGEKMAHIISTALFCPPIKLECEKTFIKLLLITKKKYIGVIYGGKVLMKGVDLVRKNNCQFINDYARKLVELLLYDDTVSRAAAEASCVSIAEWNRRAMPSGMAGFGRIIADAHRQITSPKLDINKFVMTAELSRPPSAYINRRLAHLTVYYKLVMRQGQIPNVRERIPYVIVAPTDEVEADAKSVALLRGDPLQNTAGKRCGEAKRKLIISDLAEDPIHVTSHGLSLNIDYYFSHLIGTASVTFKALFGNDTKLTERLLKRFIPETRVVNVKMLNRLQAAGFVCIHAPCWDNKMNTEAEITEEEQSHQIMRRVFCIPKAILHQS
T2 sequence (P08546 whole entry): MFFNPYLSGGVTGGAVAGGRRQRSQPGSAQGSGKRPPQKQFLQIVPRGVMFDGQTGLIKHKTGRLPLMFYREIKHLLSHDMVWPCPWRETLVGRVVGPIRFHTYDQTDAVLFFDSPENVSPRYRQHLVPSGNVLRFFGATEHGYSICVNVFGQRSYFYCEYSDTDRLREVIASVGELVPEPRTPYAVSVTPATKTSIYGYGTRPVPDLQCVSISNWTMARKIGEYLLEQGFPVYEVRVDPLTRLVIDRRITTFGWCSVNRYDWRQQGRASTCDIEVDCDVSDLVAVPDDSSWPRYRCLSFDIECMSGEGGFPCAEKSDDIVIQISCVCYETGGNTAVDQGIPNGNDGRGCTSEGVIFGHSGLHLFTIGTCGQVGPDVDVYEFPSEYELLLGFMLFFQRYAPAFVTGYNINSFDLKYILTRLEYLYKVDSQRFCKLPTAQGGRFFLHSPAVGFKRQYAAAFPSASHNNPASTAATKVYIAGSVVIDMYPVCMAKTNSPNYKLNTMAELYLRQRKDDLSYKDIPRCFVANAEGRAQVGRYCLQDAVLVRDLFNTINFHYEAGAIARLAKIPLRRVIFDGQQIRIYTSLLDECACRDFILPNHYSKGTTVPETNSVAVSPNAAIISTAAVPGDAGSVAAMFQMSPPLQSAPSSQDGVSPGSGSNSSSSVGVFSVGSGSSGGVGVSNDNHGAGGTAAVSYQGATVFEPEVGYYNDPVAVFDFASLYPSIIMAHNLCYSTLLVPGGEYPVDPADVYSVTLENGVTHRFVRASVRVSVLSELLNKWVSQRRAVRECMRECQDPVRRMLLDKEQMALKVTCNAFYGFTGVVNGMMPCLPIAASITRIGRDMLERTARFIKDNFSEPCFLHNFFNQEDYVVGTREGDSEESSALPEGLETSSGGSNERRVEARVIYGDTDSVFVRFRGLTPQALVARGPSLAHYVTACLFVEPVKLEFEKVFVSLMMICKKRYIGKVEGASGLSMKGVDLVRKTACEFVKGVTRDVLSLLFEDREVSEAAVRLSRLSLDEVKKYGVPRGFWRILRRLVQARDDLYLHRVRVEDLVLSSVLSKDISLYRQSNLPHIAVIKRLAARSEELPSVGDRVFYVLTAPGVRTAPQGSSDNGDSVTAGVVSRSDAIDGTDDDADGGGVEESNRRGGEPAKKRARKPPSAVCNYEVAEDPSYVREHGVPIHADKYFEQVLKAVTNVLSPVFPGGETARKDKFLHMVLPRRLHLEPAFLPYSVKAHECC

| Structure (SMILES) | EC50 ([1]; ~72 hrs) | IC50 [2] | IC50 ([3]; ~72 hrs) | EC50 ([4]; MRC5 cells, ~72 hrs) | EC50 ([5]; ~72 hrs) | IC50 [6] | EC50 ([7]; ~72 hrs) | EC50 ([8]; ~72 hrs) | IC50 ([9]; ~72 hrs) | EC50 [1, 10] | IC50 [3, 11] | EC50 [4, 12] | EC50 [5, 13] | EC50 [7, 14] | EC50 [8, 15] | IC50 [9, 16] |
| --- | --- | --- | --- | --- | --- | --- | --- | --- | --- | --- | --- | --- | --- | --- | --- | --- |
| O=C1CC[C@@H](CN2Cc3c(C(=O)NCc4ccc(Cl)cc4)nn(C4CCC(F)(F)C4)c3C2)N1 (single isomer, unassigned) [Compound 55] | 13100 nM | 26.9 nM | 478 nM | 2710 nM | 5600 nM | 94.1 nM | – | – | – | – | – | – | – | – | – | – |
| Cn1nc(C(=O)NCc2ccc(Cl)cc2)c2c1CC(C[C@@H]1CCC(=O)N1)C2 (single isomer, unassigned) [Compound 127] | 364 nM | 9.72 nM | 130 nM | 599 nM | 240 nM | 48.9 nM | 278 nM | 694 nM | 407 nM | – | – | – | – | – | – | – |
| CN(CCn1nc(C(=O)NCc2ccc(Cl)cc2)c2c1CN(C[C@H]1CCC(=O)N1)C2)C(=O)C1CCC1 [Compound 3] | – | 3.45 nM | – | – | – | 8.75 nM | – | – | – | 56900 nM | 342 nM | 1260 nM | 33300 nM | – | – | – |
| O=C1CC[C@H](CN2Cc3c(C(=O)NCc4ccc(Cl)cc4)nn(CC4CCCO4)c3C2)N1 (stereo partly shown) [Compound 29] | – | 57.8 nM | – | – | – | 186 nM | – | – | – | 8930 nM | 258 nM | 3680 nM | 5320 nM | – | – | – |
| CC1(Cn2nc(C(=O)NCc3ccc(Cl)cc3)c3c2CN(C[C@H]2CCC(=O)N2)C3)COC1 [Compound 30] | – | 65.9 nM | – | – | – | 245 nM | – | – | – | 16400 nM | 2350 nM | 5750 nM | 12000 nM | – | – | – |
| O=C1CC[C@H](CN2Cc3c(C(=O)NCc4ccc(Cl)cc4)nn(CCC4CCOC4)c3C2)N1 (stereo partly shown) [Compound 38] | – | 15.6 nM | – | – | – | 34.6 nM | – | – | – | 5830 nM | 500 nM | 1240 nM | 2580 nM | – | – | – |
| CC(C)(O)Cn1nc(C(=O)NCc2ccc(Cl)cc2)c2c1CN(C[C@H]1CCC(=O)N1)C2 [Compound 58] | – | 18.9 nM | – | – | – | 120 nM | – | – | – | 712 nM | 602 nM | 1230 nM | 536 nM | – | – | – |
| [2H]C([2H])([2H])n1nc(C(=O)NCc2ccc(Cl)cc2)c2c1CN(C[C@H]1CCC(=O)N1)C2 [Compound 59] | – | 48.6 nM | – | – | – | 70.6 nM | – | – | – | 3540 nM | – | 714 nM | 1370 nM | 3180 nM | 7100 nM | 5210 nM |
| Cn1nc(C(=O)NCc2ccc(Cl)cc2)c2c1CN(C[C@@H]1CC(F)C(=O)N1)C2 (stereo partly shown) [Compound 80] | 2310 nM | 102 nM | – | 2780 nM | 1930 nM | 168 nM | 2830 nM | 4000 nM | 3890 nM | – | – | – | – | – | – | – |
| O=C1CC[C@H](CC2Cc3c(C(=O)NCc4ccc(Cl)cc4)nn(CCN4CCOCC4)c3C2)N1 (stereo partly shown) [Compound 133] | – | 19.7 nM | – | – | – | 85.8 nM | – | – | – | 1060 nM | – | 805 nM | 1620 nM | 557 nM | 1190 nM | 1210 nM |
| CC(C)N1CC(n2nc(C(=O)NCc3ccc(Cl)cc3)c3c2CC(C[C@H]2CCC(=O)N2)C3)C1 (stereo partly shown) [Compound 134] | 584 nM | 14.9 nM | – | 970 nM | 991 nM | 87.4 nM | 545 nM | 1170 nM | 832 nM | – | – | – | – | – | – | – |
| CC(C)CN1CC(n2nc(C(=O)NCc3ccc(Cl)cc3)c3c2CC(C[C@H]2CCC(=O)N2)C3)C1 (stereo partly shown) [Compound 135] | – | 26.1 nM | – | – | – | 89.3 nM | – | – | – | 1970 nM | – | 769 nM | 1520 nM | 589 nM | 749 nM | 633 nM |
